# What was measured:
# [1] = system: tau phosphorylated on Ser202; assay: Western blot of phosphorylated tau (AT8 antibody) in 3xTg-AD cortical neuronal cultures; assay type: cell-based, mouse; conditions: for levels of tau phosphorylated on Serine 202: day 3 to day 10 in vitro, untreated 3xTg 129.1
# Text: (§1) In order to carry out the experiments of the present invention, either an in vitro cortical neuronal model with simultaneous overexpression of tau and β-amyloid, obtained from a model of Alzheimer's disease in triple-transgenic (3×Tg-AD or 3×Tg) mice, obtainable via the detailed procedure in the international patent application WO2003/053136 and provided by the title holders of this application, or an in vitro cortical neuronal model obtained from non-transgenic (No-Tg) mice.
# The administration of 50 nM spirolide is equivalent to approximately 37 μg spirolide per kg of body weight. Intraperitoneal administration of an amount higher than 37 μg per kg body weight to a mouse reduced the levels of these proteins but produced toxic effects in the animal (Santokh et al., 2003. NeuroToxicology, 24: 593-604), however, the oral toxicity of spirolides is 1 mg per kg body weight.
# For the determination of the effect of the spirolide compound of the present invention on the expression of tau and beta amyloid, the Western blot techniques were used. The primary neuronal cultures were incubated with the spirolide compound of the present invention added to the culture medium for a specific time. For the concentration of 50 nM, the treatment times were between 7 and 10 days in vitro and for other concentrations (0.1 to 25 nM) between 3 and 10 days in vitro. The cells were then processed following the usual protocols for Western blot. For Western blot studies, protein expression was evaluated using 6E10 anti-β-amyloid primary antibodies at a dilution of 1:500, AT8 anti-Tau (tau phosphorylated on Ser202, dilution 1:1000) and AT100 anti-tau (tau phosphorylated on Thr 212 and Ser214, dilution 1:1000).
# For Western blot assays, neuronal cultures treated with the spirolide of the present invention were washed with cold phosphate buffer and lysed in 50 mM Tris-HCl buffer (pH 7.4) containing 150 mM NaCl, 1 mM EDTA, 1% Triton X-100, 2 mM DTT, 2.5 mM PMSF, 40 mg/ml aprotinin, 4 mg/ml leupeptin, 5 mM NaF, 1 mM Na3VO4, 1 mg/ml pepstatin A and 1 mg/ml benzamidine. Total protein concentration was determined by Bradford's method using bovine albumin as standard. Aliquots of cellular lysates containing 20 μg total protein were loaded in loading buffer (50 mM Tris-HCl, 100 mM dithiothreitol, 2% SDS, 20% glycerol, 0.05% bromophenol blue, pH 6.8), the proteins were separated by electrophoresis and transferred to PVDF membranes. The membranes were incubated with the primary antibodies, washed and then incubated with a secondary antibody bound to HRP. Immunoreactivity was detected by chemiluminescence. The same membranes were reincubated with an anti-β-actin primary antibody to carry out data correction for the sample protein content.
# β-amyloid = assay: Western blot of intracellular β-amyloid (6E10 antibody) in 3xTg-AD cortical neuronal cultures; assay type: cell-based, mouse
# Text: as §1
# (§2) For the determination of the effect of the spirolide compound of the present invention on the expression of tau and beta amyloid, the Western blot techniques were used. […] For Western blot studies, protein expression was evaluated using 6E10 anti-β-amyloid primary antibodies at a dilution of 1:500, AT8 anti-Tau (tau phosphorylated on Ser202, dilution 1:1000) and AT100 anti-tau (tau phosphorylated on Thr 212 and Ser214, dilution 1:1000).
# (§3) For Western blot assays, neuronal cultures treated with the spirolide of the present invention were washed with cold phosphate buffer and lysed in 50 mM Tris-HCl buffer (pH 7.4) containing 150 mM NaCl, 1 mM EDTA, 1% Triton X-100, 2 mM DTT, 2.5 mM PMSF, 40 mg/ml aprotinin, 4 mg/ml leupeptin, 5 mM NaF, 1 mM Na3VO4, 1 mg/ml pepstatin A and 1 mg/ml benzamidine. Total protein concentration was determined by Bradford's method using bovine albumin as standard. […]
# total tau = assay: Western blot of total basal tau (Tau46 antibody) in control non-transgenic cortical neurones; assay type: cell-based, mouse; conditions: 100 nM
# Protocol: The effect of spirolide on basal phosphorylation of tau was determined by Western blot techniques. An in vitro cortical neuronal model obtained from non-transgenic mice was used. Neuronal culture and sample processing was carried out in the same way as described in the previous example. The data obtained were corrected for the β-actin content of the samples.
# [2] = oral; cited from earlier work
# [3] = system: tau phosphorylated on Thr212 and Ser214; assay: Western blot of phosphorylated tau (AT100 antibody) in 3xTg-AD cortical neuronal cultures; assay type: cell-based, mouse; conditions: 3xTg cultures, FIG. 3B, p<0.005, n=3
# Text: as §1, §2, §3
# [4] = administered intraperitoneally, rat and mouse; cited from earlier work
# cortical neurones = assay: Alamar Blue cellular viability assay in primary cortical cultures; assay type: cell-based, mouse; conditions: 72 hours in culture
# Text: as §1
# Primary cortical cultures in the embodiment of the invention were obtained from 3×Tg-AD mouse embryos of 15-17 days gestation and the wild cultures were obtained from non 3×Tg control mouse embryos of the same strain. The effect of the compounds used in this invention on cellular viability was estimated by a fluorescence assay using the Alamar Blue viability indicator. To carry out the assay, primary cortical cultures seeded on 96-well plates were used. The neuronal cells were incubated in the culture medium with the spirolide of the present invention at different concentrations dissolved in dimethyl sulfoxide and the effect on neuronal viability was determined at different treatment times in vitro. The maximum concentration of 13-desmethyl spirolide evaluated was 100 nM and the concentration of Alamar blue was 10%. The volume of the reaction used was 200 μl. Fluorescence was measured at wavelengths of 530 nm (excitation) and 590 nm (emission).
substance,measurement,setting,value
13-desmethyl spirolide,hyperphosphorylation of the tau protein,[1]; 0.017 μg per kg body weight (approx. 0.023 nM),continued to be reduced
same,levels of tau phosphorylated on Serine 202,"[1]; 3xTg cultures, 0.1 nM",129.8 ± 1.7 % control
same,levels of tau phosphorylated on Serine 202,"[1]; 3xTg cultures, 0.5 nM",61.7 ± 12.4 % control
same,levels of tau phosphorylated on Serine 202,"[1]; 3xTg cultures, 10 nM",70.3 ± 4.7 % control
same,levels of tau phosphorylated on Serine 202,"[1]; 3xTg cultures, 25 nM",89.1 ± 2.2 % control
same,"tau phosphorylation (AT8, Ser202; Western blot quantification)","[1]; 3xTg cultures, FIG. 2B, p<0.05, n=3",significant reduction
same,β-amyloid protein,β-amyloid; 0.5 nM,reducing β-amyloid protein
same,"overexpression of β-amyloid (Western blot quantification, 6E10)","β-amyloid; 3xTg cultures, FIG. 1B, p<0.005 vs untreated transgenic cultures, n=3",significant reduction
same,total basal tau levels in control neurones,total tau,139.9 ± 27.3 % control
same,total basal tau levels in control neurones,total tau; listed as spirolide,did not affect
same,toxicity when administered orally,[2],not toxic
same,"tau phosphorylation (AT100, Thr212 and Ser214; Western blot quantification)",[3],significant reduction
same,concentration causing toxic effects,[4],37-40 μg/kg body weight
same,Viability of cortical neurones,cortical neurones; 2.5 nM,104.3 ± 1.2 % control
same,Viability of cortical neurones,cortical neurones; 5 nM,104 ± 1.3 % control
same,Viability of cortical neurones,cortical neurones; 10 nM,104.3 ± 1.4 % control
same,Viability of cortical neurones,cortical neurones; 25 nM,104.3 ± 0.7 % control
same,Viability of cortical neurones,cortical neurones; 50 nM,103.4 ± 0.5 % control
same,Viability of cortical neurones,cortical neurones; 100 nM,102.1 ± 1.5 % control

# — patent publication US20120258956A1, “USE OF A SPIROLIDE, ANALOGUES AND DERIVATIVES FOR TREATING AND/OR PREVENTING PATHOLOGICAL CONDITIONS LINKED TO THE TAU AND BETA-AMYLOID PROTEINS” (priority 2009, published 2012)
